Among the test systems are A549 NSCLC; OVCAR-3 ovarian; OVCAR-5 ovarian; UO-31 renal; CCRF-CEM leukemia; COLO 205 colon; SF-295 CNS; SK-MEL-2 melanoma; UACC-62 melanoma; T-47D breast.
Common to all, as to assay: inhibition of tumour cell growth, NCI panel, 48 h

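The compound was tested at five concentrations on cells cultured in 96-well plates, with a 48-hour exposure period. Definition used: TGI = concentration required for complete inhibition of growth.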 A value given as a limit tells only on which side of the number the result lay.

Turning to `CN1CC[C@]2(c3cccc(O)c3)CC(=O)/C(=C/c3ccccc3)[C@@H]1C2`, the TGI in the assay with A549 NSCLC is 13.2 µM; in the assay with OVCAR-3 ovarian, 4.43 µM; with OVCAR-5 ovarian, 29.7 µM; in the assay on UO-31 renal, 10.4 µM; with CCRF-CEM leukemia, above 24.5 µM; with COLO 205 colon, 18.1 µM. In addition, the TGI in the assay with SF-295 CNS is 13.2 µM; with SK-MEL-2 melanoma, 13 µM.
With `CN1CCN(Cc2cc3c(nn2)-c2ccccc2C3=O)CC1`, the TGI in the assay on A549 NSCLC, in the assay with OVCAR-5 ovarian, in the assay on UACC-62 melanoma, with T-47D breast, in the assay on UO-31 renal and in the assay with CCRF-CEM leukemia was above 100 µM throughout. Further, the TGI is 34.3 µM in the assay with COLO 205 colon, above 100 µM with SF-295 CNS and above 100 µM with SK-MEL-2 melanoma.
For `O=C1/C(=C/c2ccc(Cl)cc2)CCCc2ccccc21`, the TGI came out at 60 µM in the assay with A549 NSCLC; 39.4 µM in the assay with OVCAR-3 ovarian; 31.9 µM in the assay on OVCAR-5 ovarian; 27.5 µM in the assay on UACC-62 melanoma; 35.4 µM in the assay with UO-31 renal; 32.5 µM in the assay on CCRF-CEM leukemia. Moreover, the TGI with COLO 205 colon was found to be 34.9 µM; in the assay on SF-295 CNS, 31.5 µM; in the assay with SK-MEL-2 melanoma it was 27.8 µM.
Consider `Clc1sc(Cl)c2c1[C@@H](Cl)C[C@@H]2Br`, for which the TGI is above 100 µM in the assay with A549 NSCLC; above 100 µM in the assay with OVCAR-5 ovarian; above 100 µM in the assay on UACC-62 melanoma; above 100 µM with T-47D breast; above 100 µM with UO-31 renal; 88.1 µM with CCRF-CEM leukemia. For the same compound, the TGI with COLO 205 colon, in the assay on SF-295 CNS and in the assay with SK-MEL-2 melanoma was above 100 µM throughout.
`COc1ccc(CC(N)=O)cc1OC`: the TGI with A549 NSCLC, in the assay with OVCAR-3 ovarian, in the assay on OVCAR-5 ovarian, in the assay with UACC-62 melanoma, in the assay with UO-31 renal and in the assay with CCRF-CEM leukemia was above 1250 µM each time. Besides, the TGI in the assay on COLO 205 colon, in the assay on SF-295 CNS and in the assay on SK-MEL-2 melanoma was above 1250 µM in each case.
On to `C=C(CN(C)C)C(=O)c1ccc(C(=O)C(=C)CN(C)C)cc1`, for which the TGI with A549 NSCLC, in the assay with OVCAR-3 ovarian, with OVCAR-5 ovarian, with UACC-62 melanoma, with UO-31 renal and in the assay with CCRF-CEM leukemia was above 100 µM each time. For the same compound, the TGI in the assay on COLO 205 colon, in the assay with SF-295 CNS and in the assay on SK-MEL-2 melanoma was above 100 µM each time.
On to `Nc1ncc2c(n1)-c1ccccc1OC2N1CCCC1` (configuration not stated), for which the TGI in the assay on A549 NSCLC, in the assay with OVCAR-3 ovarian, in the assay with OVCAR-5 ovarian, in the assay on UACC-62 melanoma, in the assay with UO-31 renal and in the assay with CCRF-CEM leukemia was above 100 µM throughout. For the same compound, the TGI with COLO 205 colon, in the assay with SF-295 CNS and with SK-MEL-2 melanoma was above 100 µM throughout.
Take `O=C1NC(O)CCN1C1OC(CO)C(O)C1O` (configuration not stated): the TGI with A549 NSCLC was above 250 µM; in the assay with OVCAR-3 ovarian it was above 250 µM; with OVCAR-5 ovarian, above 145 µM; in the assay on UACC-62 melanoma, above 250 µM; in the assay on UO-31 renal it was above 250 µM; in the assay on CCRF-CEM leukemia it was above 250 µM. The TGI in the assay on COLO 205 colon is above 250 µM; in the assay on SF-295 CNS, above 250 µM; in the assay on SK-MEL-2 melanoma, above 158 µM.
As for `O=C1c2cccc3cccc(c23)C(=O)N1CCCNCCCCNCCCNCCCN1C(=O)c2cccc3cccc(c23)C1=O`, the TGI is 1.39 µM in the assay on A549 NSCLC; 2.12 µM with OVCAR-3 ovarian; 2.76 µM in the assay on OVCAR-5 ovarian; 1.6 µM in the assay on UACC-62 melanoma; 18.6 µM with UO-31 renal; above 100 µM with CCRF-CEM leukemia. For the same compound, the TGI in the assay on SF-295 CNS amounted to 22.7 µM; with SK-MEL-2 melanoma, 2.75 µM.
As to `COc1cc(C2c3cc4c(cc3[C@@H](Nc3ccccc3)C3COC(=O)[C@H]23)OCO4)cc(OC)c1O` (some centres not stated), the TGI with A549 NSCLC is 1.82 µM; in the assay on OVCAR-3 ovarian it was 7.34 µM; with OVCAR-5 ovarian, above 66.8 µM; with UACC-62 melanoma it was 2.9 µM; in the assay on UO-31 renal, 5.07 µM; in the assay on CCRF-CEM leukemia, 0.476 µM. Moreover, the figures for the TGI in the assay on COLO 205 colon, in the assay on SF-295 CNS and with SK-MEL-2 melanoma were 5.66 µM, 3.79 µM and 6.97 µM, respectively.
Take `O=C(NCCCl)O/N=C/c1cccnc1`: the TGI in the assay on A549 NSCLC, with OVCAR-3 ovarian, in the assay with OVCAR-5 ovarian, in the assay with UACC-62 melanoma, in the assay on UO-31 renal and with CCRF-CEM leukemia was above 100 µM in each case. The TGI in the assay on COLO 205 colon, with SF-295 CNS and in the assay on SK-MEL-2 melanoma was above 100 µM throughout.
For `CC1=C(C#N)c2nc3ccccc3n2C(=O)C1(C)CCO` (configuration not stated), the TGI with A549 NSCLC, with OVCAR-3 ovarian, with OVCAR-5 ovarian, in the assay with UACC-62 melanoma, in the assay on UO-31 renal and in the assay on CCRF-CEM leukemia was above 100 µM in each case. In addition, the TGI with COLO 205 colon, with SF-295 CNS and in the assay with SK-MEL-2 melanoma was above 100 µM in each case.
As to `COc1cc(C=O)ccc1O`, the TGI with A549 NSCLC, with OVCAR-3 ovarian, with OVCAR-5 ovarian, with T-47D breast, in the assay with UO-31 renal and with CCRF-CEM leukemia was above 100 µM throughout. In addition, the TGI with COLO 205 colon and with SF-295 CNS was above 100 µM in each case.
Regarding `CSc1csc(-c2ccc(-c3ccc(-c4cc(SC)cs4)s3)s2)c1`, the TGI in the assay on A549 NSCLC, in the assay with OVCAR-3 ovarian, in the assay with OVCAR-5 ovarian, in the assay on UACC-62 melanoma, in the assay on UO-31 renal and in the assay with CCRF-CEM leukemia was above 100 µM throughout. Further, the TGI with COLO 205 colon, in the assay on SF-295 CNS and in the assay with SK-MEL-2 melanoma was above 100 µM each time.
Take `CCOC(=O)CNC(=O)NC12CC3CC(CC(C3)C1)C2`: the TGI in the assay on A549 NSCLC was above 550 µM; in the assay with OVCAR-3 ovarian, 398 µM; in the assay with OVCAR-5 ovarian it was above 550 µM; with UACC-62 melanoma it was 416 µM; with UO-31 renal it was 512 µM; with CCRF-CEM leukemia, above 550 µM. The TGI in the assay on COLO 205 colon is 363 µM; in the assay with SF-295 CNS, above 550 µM; in the assay on SK-MEL-2 melanoma, 372 µM.
Turning to `Cn1ncc2c(NCc3ccccc3)ncnc21`, the TGI in the assay on A549 NSCLC, in the assay on OVCAR-3 ovarian, in the assay with OVCAR-5 ovarian, in the assay with UACC-62 melanoma, with T-47D breast and in the assay with UO-31 renal was above 100 µM each time. Further, the TGI in the assay on CCRF-CEM leukemia, in the assay on COLO 205 colon and in the assay on SF-295 CNS was above 100 µM throughout.
On to `Cc1cc(C[C@H]2O[C@@H]3OC(C)(C)O[C@@H]3[C@H]3OC(C)(C)O[C@H]32)c2ccccc2n1`, for which the TGI in the assay on A549 NSCLC, in the assay on OVCAR-5 ovarian, with UACC-62 melanoma, in the assay with T-47D breast, in the assay with UO-31 renal and with CCRF-CEM leukemia was above 100 µM throughout. Also, the TGI in the assay on COLO 205 colon, with SF-295 CNS and in the assay with SK-MEL-2 melanoma was above 100 µM each time.
For `O[C@H]1[C@H](O)[C@@H](O)CN2CC[C@H](O)[C@H]12`, the TGI in the assay with A549 NSCLC, in the assay on OVCAR-3 ovarian, with OVCAR-5 ovarian, in the assay on UACC-62 melanoma, in the assay with UO-31 renal and in the assay with CCRF-CEM leukemia was above 100 µM throughout. For the same compound, the TGI with COLO 205 colon, in the assay with SF-295 CNS and in the assay on SK-MEL-2 melanoma was above 100 µM throughout.
Take `[N-]=[N+]=CC(=O)OC(CCl)CCl`: the TGI with OVCAR-3 ovarian, with OVCAR-5 ovarian, in the assay on UACC-62 melanoma, in the assay on UO-31 renal, in the assay on COLO 205 colon and in the assay with SF-295 CNS was above 100 µM each time. In the assay on SK-MEL-2 melanoma, this compound displayed a TGI above 100 µM.
On to `CCOC(=O)/C=C1/C(CCCOCc2ccccc2)C2CCCC23CC2(CCN13)OCCO2` (configuration not stated), for which the TGI was 63.9 µM in the assay with A549 NSCLC; 49.4 µM with OVCAR-3 ovarian; above 100 µM in the assay with OVCAR-5 ovarian; 50 µM in the assay with UACC-62 melanoma; 64.5 µM with UO-31 renal; 64.4 µM with CCRF-CEM leukemia. Further, the TGI in the assay with COLO 205 colon was 34.2 µM; with SF-295 CNS it was above 100 µM; in the assay with SK-MEL-2 melanoma, 36.9 µM.
`O=C1CSC2(CC(/C=C/c3cccs3)=NN2c2cccc(S(=O)(=O)O)c2)N1c1nc2ccccc2s1` (configuration not stated): the TGI was above 100 µM with A549 NSCLC; above 100 µM with OVCAR-5 ovarian; above 100 µM in the assay with UACC-62 melanoma; 80.2 µM in the assay on T-47D breast; above 100 µM in the assay with UO-31 renal; above 100 µM in the assay with CCRF-CEM leukemia. Besides, the TGI with COLO 205 colon and in the assay on SK-MEL-2 melanoma was above 100 µM each time.
Consider `O=C(NN1C(=O)CS(=O)(=O)C1c1ccc(C(F)(F)F)cc1)c1ccncc1` (configuration not stated), for which the TGI in the assay with A549 NSCLC, in the assay on OVCAR-5 ovarian, in the assay with CCRF-CEM leukemia, in the assay with COLO 205 colon, in the assay with SF-295 CNS and in the assay on SK-MEL-2 melanoma was above 100 µM each time.
As to `N#Cc1sc2c(c1OC(=O)c1ccc(C(F)(F)F)cc1)c(=O)n(-c1ccccc1)c(=S)n2-c1ccccc1`, the TGI is above 100 µM with A549 NSCLC; 55.5 µM in the assay on OVCAR-3 ovarian; above 100 µM in the assay on OVCAR-5 ovarian; 50.9 µM in the assay with UACC-62 melanoma; above 100 µM in the assay on T-47D breast; 36.7 µM in the assay on CCRF-CEM leukemia. Besides, the TGI in the assay with COLO 205 colon worked out at 46.4 µM; with SF-295 CNS, 71.4 µM.

For the origin of these results see PubChem BioAssay (NCI).
